# Measured values taken from publication PMC9501035, “Synthesis of Novel N-Methylmorpholine-Substituted Benzimidazolium Salts as Potential α-Glucosidase Inhibitors” (Molecules, 2022).
# Where “and” joins values, the source holds several entries; their conditions need not be identical. Equal entries are not always repeated.
# Biological target: α-glucosidase
# Experiment: not given
# Settings: benzimidazole-bearing Schiff bases; cited from earlier work
row,SMILES,IC50
1,COc1ccc(/C(CSc2nc3ccccc3[nH]2)=N\N=C\c2ccc(OC)cc2O)cc1 [I],2.2 ± 0.1 µM

# Same assay, conditions: benzoylarylbenzimidazoles; cited from earlier work
row,SMILES,IC50
1,O=C(c1ccccc1)c1ccc2nc(-c3ccc(O)cc3)[nH]c2c1 [II],11.02 ± 0.04 µM

# Same assay, conditions: structural hybrids with piperazine and morpholine; cited from earlier work
row,SMILES,IC50
1,CN1CCN(c2ccc3[nH]c(-c4ccc(O)cc4)nc3c2)CC1 [IV X=NMe],2.25 ± 0.28 µM
2,Oc1ccc(-c2nc3cc(N4CCOCC4)ccc3[nH]2)cc1 [IV X=O],3.4 ± 0.86 µM

# Biological target: α-glucosidase
# Experiment: In vitro α-glucosidase inhibition (spectroscopic method)
# Format: biochemical
# Settings: means of experiments, n = 3
# Protocol: α-Glucosidase inhibitions were determined following a modified spectroscopic method. The detailed protocol was already reported. Each experiment was carried out thrice, and percentage inhibitions were determined with the help of the following expression, followed by the determination of IC50 values:% Inhibition = [(Acontrol − Asample)/Acontrol] × 100 where ‘A’ stands for absorbance.
row,SMILES,IC50
1,"O=C(C[n+]1c(CN2CCOCC2)n(Cc2ccccc2)c2ccccc21)Nc1ccccc1Cl [Compound 5a, 1-Benzyl-3-(2-((2-chlorophenyl)amino)-2-oxoethyl)-2-(morpholinomethyl)-1H-benzo[d]imidazol-3-ium chloride]",50 ± 0.04 µM
2,"O=C(C[n+]1c(CN2CCOCC2)n(Cc2ccccc2)c2ccccc21)Nc1ccc(Cl)cc1 [Compound 5b, 1-Benzyl-3-(2-((4-chlorophenyl)amino)-2-oxoethyl)-2-(morpholinomethyl)-1H-benzo[d]imidazol-3-ium chloride]",35 ± 0.02 µM
3,"O=C(C[n+]1c(CN2CCOCC2)n(Cc2ccccc2)c2ccccc21)Nc1ccccc1Br [Compound 5c, 1-Benzyl-3-(2-((2-bromophenyl)amino)-2-oxoethyl)-2-(morpholinomethyl)-1H-benzo[d]imidazol-3-ium chloride]",55 ± 0.14 µM
4,"O=C(C[n+]1c(CN2CCOCC2)n(Cc2ccccc2)c2ccccc21)Nc1ccc(Br)cc1 [Compound 5d, 1-Benzyl-3-(2-((4-bromophenyl)amino)-2-oxoethyl)-2-(morpholinomethyl)-1H-benzo[d]imidazol-3-ium chloride]",15 ± 0.03 µM
5,"O=C(C[n+]1c(CN2CCOCC2)n(Cc2ccccc2)c2ccccc21)Nc1ccccc1[N+](=O)[O-] [Compound 5e, 1-Benzyl-3-(2-((2-nitrophenyl)amino)-2-oxoethyl)-2-(morpholinomethyl)-1H-benzo[d]imidazol-3-ium chloride]",30 ± 0.11 µM
6,"O=C(C[n+]1c(CN2CCOCC2)n(Cc2ccccc2)c2ccccc21)Nc1cccc([N+](=O)[O-])c1 [Compound 5f, 1-Benzyl-3-(2-((3-nitrophenyl)amino)-2-oxoethyl)-2-(morpholinomethyl)-1H-benzo[d]imidazol-3-ium chloride]",19 ± 0.06 µM
7,"O=C(C[n+]1c(CN2CCOCC2)n(Cc2ccccc2)c2ccccc21)Nc1ccc([N+](=O)[O-])cc1 [Compound 5g, 1-Benzyl-3-(2-((4-nitrophenyl)amino)-2-oxoethyl)-2-(morpholinomethyl)-1H-benzo[d]imidazol-3-ium chloride]",25 ± 0.106 µM
8,"Cc1ccccc1NC(=O)C[n+]1c(CN2CCOCC2)n(Cc2ccccc2)c2ccccc21 [Compound 5h, 1-Benzyl-3-(2-((2-methylphenyl)amino)-2-oxoethyl)-2-(morpholinomethyl)-1H-benzo[d]imidazol-3-ium chloride]",21 ± 0.076 µM
9,"Cc1cccc(NC(=O)C[n+]2c(CN3CCOCC3)n(Cc3ccccc3)c3ccccc32)c1 [Compound 5i, 1-Benzyl-3-(2-((3-methylphenyl)amino)-2-oxoethyl)-2-(morpholinomethyl)-1H-benzo[d]imidazol-3-ium chloride]",47 ± 0.05 µM
10,"Cc1ccc(NC(=O)C[n+]2c(CN3CCOCC3)n(Cc3ccccc3)c3ccccc32)cc1 [Compound 5j, 1-Benzyl-3-(2-((4-methylphenyl)amino)-2-oxoethyl)-2-(morpholinomethyl)-1H-benzo[d]imidazol-3-ium chloride]",88 ± 0.08 µM
11,"COc1ccccc1NC(=O)C[n+]1c(CN2CCOCC2)n(Cc2ccccc2)c2ccccc21 [Compound 5k, 1-Benzyl-3-(2-((2-methoxyphenyl)amino)-2-oxoethyl)-2-(morpholinomethyl)-1H-benzo[d]imidazol-3-ium chloride]",26 µM and 25 µM
12,"COc1ccc(NC(=O)C[n+]2c(CN3CCOCC3)n(Cc3ccccc3)c3ccccc32)cc1 [Compound 5l, 1-Benzyl-3-(2-((4-methoxyphenyl)amino)-2-oxoethyl)-2-(morpholinomethyl)-1H-benzo[d]imidazol-3-ium chloride]",65 ± 0.015 µM
13,"O=C(C[n+]1c(CN2CCOCC2)n(Cc2ccccc2)c2ccccc21)Nc1ccccc1 [Compound 5m, 1-Benzyl-2-(morpholinomethyl)-3-(2-oxo-2-(phenylamino)ethyl)-1H-benzo[d]imidazol-3-ium chloride]",110 ± 0.113 µM
